Measured values published in PMC5066224, “A Novel Resveratrol Based Tubulin Inhibitor Induces Mitotic Arrest and Activates Apoptosis in Cancer Cells” (Scientific Reports, 2016).

Key:
[1] = system: CEM cells; test: Cell cycle phase distribution by flow cytometry; assay type: cell-based, Human; conditions: 2 μM, after 12 h
Procedure: Cell cycle analysis by flow cytometry was performed as previously described. Briefly, 75,000 cells/ml (A549) were seeded in 6 well plates and grown in serum free medium for 18 h. After synchronisation, the cells were treated with 5 μM of SS28 (6, 12, 18, 24 and 30 h) and cells were processed as described before. Similarly, CEM cells (75,000 cells/ml) were treated with SS28 (2 μM) and harvested (6, 12, 18, 24 and 30 h) and processed. Following fixation, cells were resuspended in PBS and stained with propidium iodide and evaluated in a flow cytometer (FACS Calibur, Becton Dickinson) using Cell Quest Pro software using excitation 488 nm laser and emission at 560/570 nm. A minimum of 10,000 cells were acquired per sample and histograms were analysed using WinMDI 2.8 software.

[2] = In vivo pharmacokinetics, HPLC of plasma; design: species or system BALB/c mice; conditions: mice, intraperitoneal, 15 mg/kg
Procedure: Control and SS28 (15 mg/kg b.wt.) treated BALB/c mice were sacrificed and blood was collected at various time points (15, 30 min, 1 and 2 h; 2 each/time point) as described. Plasma (50 μl) was then extracted with acetonitrile, centrifuged (3,000 × g for 15 min) to remove precipitated proteins and the resulting supernatants were analyzed using HPLC (Waters, USA).
Standard solution of SS28 was prepared by dissolving increasing concentration (25 to 100 μM) of the compound in acetonitrile. Standard calibration curves were plotted using peak area against the concentration of the compound and the retention time of the compound was also determined. Plasma concentrations of the treated groups were extrapolated from standard curves constructed by linear regression in Graph-Pad Prism 4.0 software (GraphPad Software, Inc.).

[3] = Toxicity evaluation in normal mice (body weight, haematology, liver and kidney function); assay type: in vivo, BALB/c mice; conditions: 9 doses
Procedure: A total number of 10 BALB/c mice were used for the study, of which 5 animals served as normal control while, remaining 5 were treated with SS28 (15 mg/kg). Body weight of each animal was monitored throughout the experiment and average body weight was calculated on 21st day of treatment. In order to evaluate the effect of SS28 on physiological functions, blood was collected (21st day) and analysed as described earlier. The blood […] was analyzed using Neubauer’s chamber, and mean values of total red blood cells (RBCs) and white blood cells (WBCs) were determined. Serum was separated and kidney and liver function tests were performed for each animal, to determine alkaline phosphatase (ALP), […] (ALT), creatinine and urea levels as described earlier. Values are presented as mean ± SEM for both the controls and SS28 administered mice.

[4] = system: A549 cells; test: Immunoblotting of cell cycle and apoptotic proteins; assay type: cell-based, human; conditions: A549, 5 μM, 24, 48 and 72 h
Procedure: Cell lysate was prepared after treating with SS28 (5 μM for 24, 48 and 72 h) from CEM and A549 cell lines. In brief, cells were harvested, washed with PBS, resuspended in lysis buffer (RIPA, 25 mM Tris (pH 7.6), 150 mM NaCl, 1% NP-40, 1% sodium deoxycholate and 0.1% SDS) containing protease inhibitors. The protein lysate was cleared by centrifugation (14,000 rpm, for 15 min). The protein concentration in the supernatant was determined using the Bradford’s assay.
For western blot analysis, ~40 μg proteins were resolved over 8–10% SDS–polyacrylamide gel[60][61][62]. Following gel electrophoresis, proteins were transferred to PVDF membrane (Millipore, USAQ9). The primary antibodies used were against Caspase 3, Caspase 9, p73, p53, KU70, KU80, Cyclin B1, CDK6, PARP1 and Actin (Santa Cruz Biotechnology, USA). The membrane was incubated with appropriate HRP-conjugated secondary antibody (2 h at 4° C). The blots were developed using chemiluminescent solution (Immobilon^TM western, Millipore) and scanned by gel documentation system (LAS 3000, FUJI, Japan). Blots were stripped subsequently as per standard protocols and reprobed with anti β-Actin antibody.

[5] = system: CEM cells; test: Annexin V-FITC/PI double-staining assay; assay type: cell-based, Human; conditions: 48 h; for cells in early apoptotic stage: Annexin positive; for cells in late apoptosis: Annexin/PI positive
Procedure: When cells undergo apoptosis, the integrity of the cell membrane is disrupted and phosphatidyl serine is exposed. Annexin V conjugated with FITC (apoptosis detection kit Santacruz, USA) has a selective affinity for phosphatidyl serine, based on which early and late apoptotic cells can be detected.
CEM cells (1 × 10^5 cells/ml) were treated with SS28 (5 and 10 μM) for 48 h. Cells were then harvested, washed with cold PBS and used for annexin-PI double-staining assay. Samples were resuspended in 1x binding buffer and incubated with Annexin V-FITC ([…]) and PI (0.05 mg/ml) and analyzed by flow cytometry (FACS calibur) using CellQuest pro software at an excitation with 488 nm laser and emission at 530 nm[55]. A minimum of 10,000 cells were acquired for each sample and illustrated as dot plot using Flowing software.

[6] = system: Nalm6; test: Trypan blue dye exclusion cell viability assay; assay type: cell-based; conditions: Homo sapiens, NALM-6, 48 h
Procedure: (§1) The effect of SS28 on viability of CEM, Reh, Nalm6, SUDHL8, Molt4, A549, HeLa 293T, mouse embryonic fibroblast (MEF) and PBMC was determined by trypan blue dye exclusion assay as described previously. Briefly, cells (0.75 × 10^5 cells/ml) were treated with increasing concentrations of SS28 (1, 5, 10 and 20, μM) for 48 and 72 h. DMSO treated cells were used as the vehicle control. Cells were harvested and subjected to trypan blue assay. Data from a minimum of three independent experiments is presented as a histogram with error bars.

[7] = system: Reh; test: Trypan blue dye exclusion cell viability assay; assay type: cell-based; conditions: Homo sapiens, 48 h
Procedure: as §1

[8] = system: SUDHL8; test: Trypan blue dye exclusion cell viability assay; assay type: cell-based; conditions: Homo sapiens, SU-DHL-8, 48 h
Procedure: as §1

[9] = system: mouse embryonic fibroblast cells (MEF); test: Trypan blue dye exclusion cell viability assay; assay type: cell-based; conditions: 48 h
Procedure: as §1

[10] = system: A549; test: Trypan blue dye exclusion cell viability assay; assay type: cell-based; conditions: Homo sapiens, 48 h
Procedure: as §1

[11] = system: Molt4; test: Trypan blue dye exclusion cell viability assay; assay type: cell-based; conditions: Homo sapiens, MOLT-4, 48 h
Procedure: as §1

[12] = system: peripheral blood mononuclear cells (PBMC); test: Trypan blue dye exclusion cell viability assay; assay type: cell-based; conditions: 48 h
Procedure: as §1

[13] = system: CEM; test: Trypan blue dye exclusion cell viability assay; assay type: cell-based; conditions: Homo sapiens, CCRF-CEM, 48 h
Procedure: as §1

[14] = normal BALB/c mice, 15 mg/kg, 21st day, mean ± SEM

level of SS28 in the plasma ([2]; 15 min and 1 h post-treatment): detectable
level of SS28 in the plasma ([2]; 30 min after the injection): significant increase
level of SS28 in the plasma ([2]; after 1 h of treatment): significant decrease
IC50 [8]: 2.7 µM
IC50 [10]: 5.2 µM
IC50 [11]: 5.1 µM
SMILES: COc1cc(/C=C/c2ccc(C)cc2)cc(OC)c1OC [SS28, (E)-1,2,3-trimethoxy-5-(4-methylstyryl)benzene]
cell cycle distribution [1]: distinct G2/M arrest
body weight ([3]; normal BALB/c mice, 15 mg/kg oral): no significant difference
number of RBCs and WBCs versus control ([3]; normal BALB/c mice, 15 mg/kg, 21st day): no significant difference
RBC [3, 14]: 6.43 ± 1.32 10^6 cells/mm^3
WBC [3, 14]: 3.5 ± 0.99 10^3 cells/mm^3
ALP level versus control ([3]; serum, 15 mg/kg, 21st day): slightly higher
level of ALT versus control ([3]; serum, 15 mg/kg, 21st day): no significant difference
levels of creatinine and urea in the serum versus control ([3]; serum, 15 mg/kg, 21st day): no significant difference
Caspase 3 [4]: showed activation
Caspase 9 [4]: increase in the cleaved Caspase 9 level
expression level of Cdk6 [4]: increased at 24 h followed by a decrease at 48 and 72 h
expression levels of p73 [4]: remained same
level of Cyclin B1 [4]: maintained throughout the time period, but with a moderate decrease at 48 h
cells in early apoptotic stage ([5]; 5 μM): 28.2%
cells in late apoptosis ([5]; 5 μM): 39.8%
cells in early apoptotic stage ([5]; 10 μM): 32.9%
cells in late apoptosis ([5]; 10 μM): 46.9%
necrosis ([5]; 5 and 10 μM): did not observe any cells undergoing necrosis
IC50 [6]: 21 µM
IC50 [7]: 7.9 µM
IC50 [9]: 5 µM
IC50 [12]: > 35 µM
IC50 [13]: 2.6 µM
